# According to patent US8642643B2, “CXCR2 antagonists” (Sanofi, priority 2006, dated 2014):
# Biological target: T1, human CXCR2 (Homo sapiens, UniProt P25025)
# T1 construct: expressed in transfected cells; host or cells: CHO-K1
# T1 sequence (P25025 1-360): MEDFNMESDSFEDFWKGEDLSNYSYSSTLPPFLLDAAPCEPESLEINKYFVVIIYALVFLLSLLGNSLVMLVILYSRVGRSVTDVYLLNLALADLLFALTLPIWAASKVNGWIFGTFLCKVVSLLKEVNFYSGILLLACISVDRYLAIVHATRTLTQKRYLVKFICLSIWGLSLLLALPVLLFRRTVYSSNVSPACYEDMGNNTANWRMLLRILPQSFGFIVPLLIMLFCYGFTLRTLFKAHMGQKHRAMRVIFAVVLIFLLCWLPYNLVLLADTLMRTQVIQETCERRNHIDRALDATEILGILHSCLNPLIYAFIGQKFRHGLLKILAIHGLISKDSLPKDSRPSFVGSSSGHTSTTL
# Assay: CXCR2 inhibition: calcium fluorescence assay (FLIPR)
# Format: cell-based
# Conditions: chemokine IL-8; CHO-K1 cells stably transfected with human CXCR2 and Gα16; calcium response (Fluo-4)
# From the text: Determination of CXCR2 Inhibition: Calcium Fluorescence Assay (FLIPR)
# The assay is based on the detection of intracellular calcium changes detected by the selective, calcium-chelating dye, Fluo-4 (Molecular Probes). A large fluorescence intensity increase is observed upon calcium association with Fluo-4. The dye is delivered to the cell interior using an acetoxymethylester form of Fluo-4, where the intracellular esterase activity results in the charged species being released and trapped within the cytoplasm of the cell. […] By co-expressing the CXCR2 receptor and the promiscuous Gα16 protein, activation of this chemokine receptor is directed into this phospholipase C cascade resulting in intracellular calcium mobilization.
# The CHO-K1 cells stably transfected with human CXCR2 and the promiscuous Gα16 protein were maintained in a log phase of growth at 37° C. and 5% CO2 in the following media: Iscove's, 10% FBS, 1× Penicillin-Streptomycin, 400 μg/ml G418 and 350 μg/ml Zeocin. Approximately 24-48 hours prior to the assay, 20,000-30,000 cells/well were plated onto a 96-well black/clear bottomed assay plate (Becton Dickinson) with a well volume of 180 μl. For dye loading the culture medium was carefully removed and replaced by 100 μl/well dye solution (4 μM Fluo-4 in 135 mM NaCl, 5 mM KCl, 1 mM magnesium sulphate, 5 mM glucose, 20 mM hepes, 2.5 mM probenecid; pH 7.4). Cells were incubated for 1 h at 37° C., and then washed 3× with buffer. After washing 90 μl buffer/well were left. Increasing concentrations of compound was added in 45 μl buffer (4× concentrated) followed by 10 min incubation at 37° C. Then the chemokine (10-100 nM) was applied in 45 μl buffer (4× concentrated) and the measurement performed for 2 min. The IC50 value of a compound was determined by calculation of % inhibition of total calcium response to the chemokine.
row,Structure (SMILES),IC50
1,"CC(C)(NC(=O)c1ccc2c(c1OCc1nc3ccccc3s1)CCCC2)C(=O)O [Example 2, 2-{[1-(Benzothiazol-2-ylmethoxy)-5,6,7,8-tetrahydro-naphthalene-2-carbonyl]-amino}-2-methyl-propionic acid]",600 nM
2,"CCC(C)(NC(=O)c1ccc2c(c1OCc1nc3ccccc3s1)CCCC2)C(=O)O (stereo not shown) [Example 5, 2-{[1-(Benzothiazol-2-ylmethoxy)-5,6,7,8-tetrahydro-naphthalene-2-carbonyl]-amino}-2-methyl-butyric acid]",400 nM
3,"CC(C)(NC(=O)c1ccc2c(c1OCc1ccc(C(F)(F)F)cc1F)CCCC2)C(=O)O [Example 8, 2-{[1-(2-Fluoro-4-trifluoromethyl-benzyloxy)-5,6,7,8-tetrahydro-naphthalene-2-carbonyl]-amino}-2-methyl-propionic acid]",1800 nM
4,"CCC(C)(NC(=O)c1ccc2c(c1OCc1ccc(OC(F)(F)F)cc1)CCCC2)C(=O)O (stereo not shown) [Example 9, 2-Methyl-2-{[1-(4-trifluoromethoxy-benzyloxy)-5,6,7,8-tetrahydro-naphthalene-2-carbonyl]-amino}-butyric acid]",1500 nM
5,"Cc1cc(C(=O)NC(C)(C)C(=O)O)c(OCc2ccc(C(F)(F)F)cc2)c2c1CCC2 [Example 11, 2-Methyl-2-{[7-methyl-4-(4-trifluoromethyl-benzyloxy)-indane-5-carbonyl]-amino}-propionic acid]",1600 nM
6,"CC(C)(NC(=O)c1ccc2ccsc2c1OCc1ccc(C(F)(F)F)cc1)C(=O)O [Example 12, 2-Methyl-2-{[7-(4-trifluoromethyl-benzyloxy)-benzo[b]thiophene-6-carbonyl]-amino}-propionic acid]",700 nM
7,"CC(C)(NC(=O)c1ccc2sccc2c1OCc1ccc(C(F)(F)F)cc1)C(=O)O [Example 13, 2-Methyl-2-{[4-(4-trifluoromethyl-benzyloxy)-benzo[b]thiophene-5-carbonyl]-amino}-propionic acid]",1100 nM
